Source: ChEMBL document CHEMBL5523735 (J Med Chem, 2024)
Values after ≈ are worked out from the molar mass of the structure shown. Active and inactive are the calls of the source. The calls are words filed in the database; no cut-off is given here.

Key:
Mus musculus [1] = assay: Anti-colitis activity in C57BL/6 mouse model of DSS-induced colitis assessed as increase in intestinal epithelial cells in colon at 100 uM, REC for 7 days administered daily by H and E staining based analysis by immunofluorescence based analysis; format: functional, organism-based; conditions: time 7.0 day
[2] = AUC (all) in Sprague-Dawley rat at 1 mg/kg, iv; format: ADME, organism-based; conditions: in vivo
[3] = Aqueous solubility of compound in PBS at pH 7.4 by spectrometry; format: physicochemical; conditions: buffer
[4] = Half life in Sprague-Dawley rat at 1 mg/kg, iv; format: ADME, organism-based; conditions: in vivo
Mus musculus [5] = assay: Anti-colitis activity in C57BL/6 mouse model of DSS-induced colitis assessed as decrease in spleen weight index at 100 uM, REC for 7 days administered daily; format: functional, organism-based; conditions: time 7.0 day
Mus musculus [6] = assay: Anti-colitis activity in C57BL/6 mouse model of DSS-induced colitis assessed as decrease in endoscopic damage in colon at 100 uM, REC for 7 days administered daily; format: functional, organism-based; conditions: time 7.0 day
Mus musculus [7] = assay: Anti-colitis activity in C57BL/6 mouse model of DSS-induced colitis assessed as decrease in loose stools at 100 uM, REC for 7 days administered daily; format: functional, organism-based; conditions: time 7.0 day
[8] = Aqueous solubility of compound in SGF at pH 1.2 by spectrometry; format: ADME; conditions: SGF, read-out: solubility
[9] = target: T1, P2Y purinoceptor 14 (Homo sapiens) (UniProt Q15391); conditions: HEK293, filed as antagonist, dose 100.0 nM
T1 sequence (whole entry): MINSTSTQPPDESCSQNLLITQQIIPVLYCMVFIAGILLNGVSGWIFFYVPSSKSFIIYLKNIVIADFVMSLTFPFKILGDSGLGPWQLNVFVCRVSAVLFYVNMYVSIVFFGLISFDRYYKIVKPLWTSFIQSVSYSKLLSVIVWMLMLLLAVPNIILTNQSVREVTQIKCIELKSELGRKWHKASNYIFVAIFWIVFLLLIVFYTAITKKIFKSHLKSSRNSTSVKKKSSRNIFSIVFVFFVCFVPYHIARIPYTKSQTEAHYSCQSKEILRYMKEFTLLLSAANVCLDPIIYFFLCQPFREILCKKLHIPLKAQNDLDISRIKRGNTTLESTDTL
Description: Antagonist activity at P2Y14R (unknown origin) stably expressed in HEK293 cells assessed as inhibition of forskolin-induced cAMP production at 100 nM by cAMP-Glo assay relative to control

Mus musculus [10] = assay: Anti-colitis activity in C57BL/6 mouse model of DSS-induced colitis assessed as decrease in rectal bleeding at 100 uM, REC for 7 days administered daily; format: functional, organism-based; conditions: time 7.0 day
[11] = Cmax in Sprague-Dawley rat at 5 mg/kg, po; format: ADME, organism-based; conditions: in vivo
P2Y purinoceptor 14 = target: T2, P2Y purinoceptor 14 (Homo sapiens, UniProt Q15391); assay: Antagonist activity at P2Y14R (unknown origin) stably expressed in HEK293 cells assessed as inhibition of forskolin-induced cAMP production by cAMP-Glo assay; format: functional, cell-based
T2 sequence (Q15391 whole entry): T1 sequence (whole entry)

[12] = Tmax in Sprague-Dawley rat at 5 mg/kg, po; format: ADME, organism-based; conditions: in vivo
[13] = Half life in Sprague-Dawley rat at 5 mg/kg, po; format: ADME, organism-based; conditions: in vivo
Mus musculus [14] = assay: Anti-colitis activity in C57BL/6 mouse model of DSS-induced colitis assessed as increase in body weight at 100 uM, REC for 7 days administered daily; format: functional, organism-based; conditions: time 7.0 day
[15] = AUC (all) in Sprague-Dawley rat at 5 mg/kg, po; format: ADME, organism-based; conditions: in vivo
[16] = Oral bioavailability in Sprague-Dawley rat at 5 mg/kg; format: ADME, organism-based; conditions: in vivo
Mus musculus [17] = assay: Anti-colitis activity in C57BL/6 mouse model of DSS-induced colitis assessed as increase in colon length at 100 uM, REC for 7 days administered daily; format: functional, organism-based; conditions: time 7.0 day
Mus musculus [18] = assay: Anti-colitis activity in C57BL/6 mouse model of DSS-induced colitis assessed as decrease in histological damage in colon at 100 uM, REC for 7 days administered daily by H and E staining based analysis; format: functional, organism-based; conditions: time 7.0 day
[19] = Aqueous solubility of compound in SIF at pH 6.8 by spectrometry; format: ADME; conditions: simulated gi fluid
[20] = Aqueous solubility of compound in double distilled water at pH 7 by spectrometry; format: physicochemical; conditions: buffer
[21] = Metabolic stability in human liver microsomes measured for 90 mins; format: ADME, Microsome; conditions: 1.5 h

AUC [2]: 27924 ng·min/mL
solubility [3]: 1.995 µg/mL (≈ 5.36 µM)
half-life [4]: 21 min
solubility [8]: 0.051 µg/mL (≈ 0.137 µM)
inhibition [9]: 130%
Cmax [11]: 518 ng/mL
IC50 (P2Y purinoceptor 14): 0.4 nM
Tmax [12]: 15 min
half-life [13]: 178 min
AUC [15]: 90744 ng·min/mL
bioavailability [16]: 65%
solubility [19]: 0.175 µg/mL (≈ 0.47 µM)
solubility [20]: 0.088 µg/mL (≈ 0.236 µM)
Stability [21]: Stable
SMILES: Cc1ccc(C(=O)Nc2cc(C(=O)O)sc2Oc2ccc(F)cn2)cc1
Activity (Mus musculus [1]): Active
Activity (Mus musculus [5]): Active
Activity (Mus musculus [6]): Active
Activity (Mus musculus [7]): Active
Activity (Mus musculus [10]): Active
Activity (Mus musculus [14]): Active
Activity (Mus musculus [17]): Active
Activity (Mus musculus [18]): Active
